Source: PMC7305224, “Mutually stabilizing interactions between proto-peptides and RNA” (Nature Communications, 2020)

Key:
Format in all cases: binding
[1] = tested on: RNA duplex 1 (5′-rCrGrCrUrArArArUrCrG-3′ & 5′-rCrGrArUrUrUrArGrCrG-3′); experiment: RNA thermal denaturation (Tm) by UV hyperchromicity at 260 nm with synthetic peptides/depsipeptides, RNA duplex 1; conditions: 100 mM NaCl
Description: Each sample contained RNA duplex 1 (5′-rCrGrCrUrArArArUrCrG-3′ and 5′-rCrGrArUrUrUrArGrCrG-3′, 2.5 μM strand) and peptide/depsipeptide (100 μM) in buffered solution (10 mM phosphate, 100 mM NaCl, pH 7.0 or 10 mM acetate, 100 mM NaCl, pH 5.0). a Structures of depsipeptides used to systematically characterize cationic side chain effects on RNA duplex stability. Lactic acid residues are highlighted. Ac acetyl, Aba acetamidobenzoic acid, which was appended to the N-terminus to increase UV absorbance. b Structures of the Fmoc-didepsipeptide building blocks used for solid-phase synthesis of depsipeptide sequences. Fmoc fluorenylmethoxycarbonyl. c Comparative effects of oligo-didepsipeptide sequences 2–6 and analogous oligo-dipeptide and on the Tm of the RNA duplex (number of independent measurements: n = 3 for Arg and Lys sequences; n = 2 for His and Dab sequences; n = 4 for Orn sequences). The shaded areas correspond to the mean ± SD Tm measured for the RNA duplex alone (n = 16 independent measurements). Data are shown as a scatter plot with mean ± SD. d Comparative effects on RNA duplex Tm of depsipeptide sequences containing a single backbone ester (number of independent measurements: n = 3 for Arg; n = 2 for His, Orn, and Dab; n = 4 for Lys), relative to RNA duplex alone (n = 16 independent measurements). Data are shown as a scatter plot with mean ± SD. e To assess the impact of different cationic side chains on depsipeptide degradation rates, depsipeptides 7–11 (40 μM) were incubated at 37 °C in buffer (100 mM HEPES, 10 mM NaCl, pH 7.3). After 5 min, the reactions were quenched by the addition of 3% TFA, and samples were analyzed by HPLC.
(§1) Prior to Tm analyses, RNA samples were annealed in the appropriate buffer by heating to 75 °C and slowly cooling to room temperature. Depsipeptide/peptide was added to the annealed RNA and incubated at 4 °C for 20 min prior to carrying out the analysis. For analyses involving dry-down reaction mixtures, the Tm was determined by monitoring fluorescence increase upon melting of a fluorophore/quencher-labeled RNA duplex (5′-rCrGrArUrUrUrArGrCrG-/3IABkFQ/-3′ and 3′-rGrCrUrArArArUrCrGrC-FAM-5′) using a BioRad CFX Connect rtPCR instrument with a heating ramp of 1 °C/min and 20 μL final sample volumes. For analyses involving pure, synthetic compounds, the Tm of the RNA was determined by monitoring UV hyperchromicity at 260 nm using a Varian Cary Bio-100 spectrophotometer, with a heating ramp of 1 °C/min and 0.5- or 1-cm pathlength cells. The following RNA sequences were used: RNA duplex 1 = 5′-rCrGrCrUrArArArUrCrG-3′ and 5′-rCrGrArUrUrUrArGrCrG-3′; RNA duplex 2 = 5′-rArArArArUrUrUrArUrArUrUrArUrUrA-3′ and 5′-rUrArArUrArArUrArUrArArArUrUrUrU-3′; RNA duplex 3 = 5′-rArArCrGrUrArUrArCrGrUrU-3′ (palindromic); and H26a RNA = 5′-rArUrGrArGrUrArArCrCrGrUrArArGrGrUrGrArArArUrU-3′. RNA was present in each assay at a final concentration of 2.5 μM of the folded structure (2.5 μM each strand for duplex 1 and duplex 2, 5.0 μM palindromic strand for duplex 3, 2.5 μM strand for H26a RNA). Tm values were determined by nonlinear fitting of the melting curves using GraphPad Prism 8.2.1 for duplex 1 and H26a, or by finding the maximum of the first derivative of the curve using the Varian Cary Bio-100 software for duplex 2 and duplex 3.

[2] = tested on: H26a RNA (5′-rArUrGrArGrUrArArCrCrGrUrArArGrGrUrGrArArArUrU-3′); experiment: RNA thermal denaturation (Tm) by UV hyperchromicity, H26a RNA hairpin
Description: as §1, with “3. Both methods of determining the Tm gave similar values for a given denaturation curve.” for “3.”

[3] = tested on: RNA duplex 3 (5′-rArArCrGrUrArUrArCrGrUrU-3′, palindromic); experiment: RNA thermal denaturation (Tm) by UV hyperchromicity, RNA duplex 3
Description: as §1, with “3. Both methods of determining the Tm gave similar values for a given denaturation curve.” for “3.”

In the case of “Aba-Gly-Ala-Dab-Lys-Ala-Dab-Lys-lac-Dab-Lys-Ala-Dab-Lys-NH2 [compound 9]”, the “RNA duplex 1 Tm” value ([1]; observed Tm with peptide/depsipeptide 100 µM, pH 7.0, 10 mM phosphate, RNA alone 43.8 ± 0.4, mean ± SD of 2-4 independent experiments) is reported as 54.2 ± 1.3 °C, the “RNA duplex 1 ΔTm” value ([1]; peptide/depsipeptide 100 μM, RNA 2.5 μM each strand, 10 mM phosphate, pH 7.0, vs RNA alone at matched pH, mean of 2–4 replicates) is reported as 10.4 °C and the “H26a RNA Tm” value ([2]; observed Tm with peptide/depsipeptide 100 µM, pH 7.0, RNA alone 53.4 ± 0.5, mean ± SD of 2-4 independent experiments) is reported as 64.9 ± 0.7 °C. For the same substance, the “H26a RNA ΔTm” value ([2]; peptide/depsipeptide 100 μM, RNA 2.5 μM strand, pH 7.0, 10 mM phosphate, 100 mM NaCl, mean of 2–4 replicates) was 11.5 °C, the “RNA duplex 3 Tm” value ([3]; observed Tm with peptide/depsipeptide 100 µM, pH 7.0, RNA alone 48.6 ± 0.7, mean ± SD of 2-4 independent experiments) was 58.5 ± 0.7 °C and the “RNA duplex 3 ΔTm” value ([3]; peptide/depsipeptide 100 μM, 5.0 μM palindromic strand, pH 7.0, 10 mM phosphate, 100 mM NaCl, mean of 2–4 replicates) was 9.9 °C.
